According to patent publication US10227349B2, “Pyrazolo[1,5-a]pyrimidine compound” (Eisai R&D Management Co., Ltd., priority 2016, dated 2019):

System: OXA-induced enteritis in BALB/c male mice
Assay: Model mouse for enteritis (OXA-induced, bowel length)
Assay type: in vivo
Conditions: po, 48 h, 0.1 mg/mL solution 10 mL/kg orally twice (1 hour before and day after OXA induction), length of colon and rectum two days after induction, read-out: Inhibitory activity on bowel shortening (%)
Protocol: Generally, the bowel length is known to be shorter during enteritis (Maxwell, J. R. et al. Curr. Protoc. Pharmacol. Chapter 5: Unit 5.58, 2009). The bowel length in an enteritis model was measured to evaluate the effect of the test compound.
The test compound was added to a 0.5% carboxymethyl cellulose solution so as to have a final concentration of 0.1 mg/mL, thereby preparing an administration solution containing the test compound. Hapten used was 4-ethoxymethylene-2-phenyloxazol-5-one (OXA, SIGMA-ALDRICH).
One hundred (100) μL of a solution of OXA diluted to 0.3% with ethanol was applied to the shaved abdominal region of BALB/c male mice (Charles River), 6-10 weeks of age, to create the sensitization. Five days after the sensitization, OXA was intrarectally administered to induce an enteritis reaction. More specifically, a syringe equipped with a sonde for oral administration was inserted into the anus of the mouse anesthetized by the inhalation of isoflurane at a concentration of 4-5% and 50 μL of the OXA solution adjusted to 1% with a solvent of 50% ethanol/50% distilled water was administered into the rectum.
One hour before and on the day following the induction of enteritis, the administration solution containing the test compound (10 mL/kg) was orally administered twice in total to the mice. Two days after the induction of enteritis, the mice were euthanized by cervical dislocation and subsequently the cecum to the anus was collected to measure the combined length of the colon and the rectum using a ruler, thereby evaluating the action of the test compound.
Note that Reference Example 1 in Table 6 is Compound (XIX).

C[C@@H](c1ccccc1)N(C)c1cc(-c2cc(F)c(F)c(F)c2)nc2cc(C(=O)N3CCC(CC(=O)O)CC3)nn12 [Reference Example 1, (S)-2-(1-(7-(methyl(1-phenylethyl)amino)-5-(3,4,5-trifluorophenyl)pyrazolo[1,5-a]pyrimidine-2-carbonyl)piperidin-4-yl)acetic acid, reference compound]
inhibition in vivo at 100 µg/mL, 1 mg/kg: 37.3%
